A short description of this data set: Stability of amoxicillin/K-clavulanate 4:1 in aqueous solution with urea. The format is physicochemical.

`CC1(C)S[C@@H]2[C@H](NC(=O)[C@H](N)c3ccc(O)cc3)C(=O)N2[C@H]1C(=O)O` [amoxicillin]: for the setting “amoxicillin in aqueous amoxiclav solution containing 40% urea, within 24 hours”, the “loss of active ingredient” value is listed as “less than 10%”.

As to `O=C(O)[C@H]1/C(=C/CO)O[C@@H]2CC(=O)N21` [clavulanic acid], the “stability of clavulanic acid, effect of urea” value (aqueous amoxiclav solution with urea (FIG. 4)) is recorded as “not adversely affected at all”.

For the origin of these results see US20100035856A1, “Beta-LACTAM-CONTAINING FORMULATIONS WITH INCREASED STABILITY IN AQUEOUS SOLUTION” (BAYER ANIMAL HEALTH GMBH, priority 2007, published 2010).
